According to patent publication US9512111B2, “N-sulfonylated tetrahydroquinolines and related bicyclic compounds for inhibition of RORγ activity and the treatment of disease” (Lycera Corporation, priority 2010, dated 2016):
pIC50: −log10 of the molar value.

What was measured:
[1] = molecular target: T1, RORγt (Homo sapiens, UniProt P51449); assay: RORγ Reporter Assay (GAL4-UAS luciferase reporter in HEK293 cells); type: cell-based; settings: benzoxazines, Table 9; HEK cells
T1 construct: The resulting GAL4-RORγt-LBD fusion construct was placed under the control of a constitutive cytomegalovirus (CMV) promoter; expressed in transfected cells; host or cells: HEK293
T1 sequence (P51449 269-508 limits assumed): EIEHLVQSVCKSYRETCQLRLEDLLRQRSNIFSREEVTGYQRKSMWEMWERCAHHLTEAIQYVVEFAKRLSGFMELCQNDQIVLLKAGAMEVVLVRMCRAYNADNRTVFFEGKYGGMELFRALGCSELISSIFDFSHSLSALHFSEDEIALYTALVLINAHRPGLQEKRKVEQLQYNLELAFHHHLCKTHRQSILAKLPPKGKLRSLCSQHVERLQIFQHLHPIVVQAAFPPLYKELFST
Description: Inhibition of RORγt in cells was determined using a GAL4-UAS reporter system in HEK293 cells employing a luciferase readout. The RORγt DNA binding domain (DBD) was replaced with the heterologous yeast GAL4 DBD using standard recombinant DNA methods. The resulting GAL4-RORγt-LBD fusion construct was placed under the control of a constitutive cytomegalovirus (CMV) promoter by cloning it into the CMV-driven mammalian expression vector pcDNA3.1+− (Promega Corporation, Madison, Wis.).
A transcriptional reporter expression construct was used to monitor GAL4-RORγ activity, which contained five copies of the GAL4 binding site enhancer (UAS) controlling expression of a firefly luciferase reporter. This construct, pGL4.31, is commercially available from Promega Corporation, Madison Wis. Both expression constructs were transfected in bulk into HEK-293 cells using standard lipid-based transfection techniques, which allowed the GAL4 RORγ-LBD fusion protein to drive expression of the luciferase reporter. Control transfections were performed with an empty pCDN3.1+ vector.
The next day, cells were plated into 384 well plates, test compound was added, and the plates were incubated overnight. […] Promega firefly assays kits were used to stabilize the luciferase signal, and the intensity of the luciferase signal was measured using an EnVision Multilabel Plate Reader (Perkin Elmer, Waltham, Mass.).
HEK 293 cells are transfected with GAL4-NR construct (CMV:NR-LBD in pcDNA3.1neo) and the pGL4.31 GAL4-luciferase reporter construct (Promega). For a background control, use empty pcDNA3.1neo and pGL4.31. Transfection protocol is for a single T75 flask performed with Minis Trans-It 293 reagent. A 60 μL aliquot of Trans-IT reagent at room temperature is added drop wise to 1.5 mL of Optimem (Invitrogen). The resulting solution is mixed by inversion and incubated for 5-20 minutes at room temperature. This reagent mixture is added to 10 μg of DNA (5 μg of each expression vector used at a concentration of 1 mg/mL). The solution is mixed by inversion and incubated at room temperature for 20 minutes.
While the Trans-IT reagent and DNA are incubating, harvest HEK-293 cells. Remove media from flasks via aspiration and add enough TrypLE Express (stable Trypsin-like reagent, Invitrogen) to cover the bottom of the flask. The mixture is incubated at room temperature until the cells are visibly loose in the flask (approximately 2-5 minutes). Add an equal volume of complete growth media, and then pipette to achieve a single cell suspension. Spin down 1×10^7 cells and re-suspend the cells in 10 mL of complete growth media (DMEM high glucose/10% dialyzed FBS/pen/strep; Invitrogen). The cells and transfection mixture are added to one T75 flask. The contents of the T75 flax are mixed and incubated overnight at 37° C. and 5% CO2.
After 16-24 hours, cells are harvested and plated for test compound screening. Cells may be harvested as described above. Next, cells are counted and an appropriate number of cells are spun down. Then, cells are aspirated and re-suspended in complete growth media at a concentration of 0.5×10^6 cells/mL to provide a cell suspension. Plate 20 μL of the cell suspension into a white, tissue-culture treated 384 well plate. (10,000 cells/well).
A 10 mM stock solution of test compound in dimethylsulfoxide (DMSO) was diluted to 500× the final test concentration in DMSO, then diluted to 5× the final test concentration with complete growth medium to provide the Test Compound Solution. The concentration of DMSO in the Test Compound Solution was […]. A 5 μL aliquot of Test Compound Solution was added to each test well in the 384 well plate previously plated with the cell suspension. Next, plates are spun briefly and incubated overnight at 37° C. and 5% CO2.
After 16-24 hours, the luciferase assay is performed. Plates and luciferase reagent (e.g. One-Glo® or Dual Glo®; Promega, Madison, Wis.) are brought to room temperature.

[2] = molecular target: T2, RORγ-LBD (Homo sapiens, UniProt P51449); assay: RORγ-Ligand Binding Domain TR-FRET Assay; type: biochemical; settings: benzoxazines, Table 9
T2 construct: HIS-tagged RORγ-LBD was recombinantly expressed in SF9 cells; made in house; host or cells: SF9 cells (baculovirus); unpurified lysate
T2 sequence (P51449 269-508 limits assumed): T1 sequence (P51449 269-508 limits assumed)
Procedure, shortened: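 Unpurified His-tagged LBD in Sf9 lysate (~10 nM final) in 25 mM HEPES pH 7.0, 100 mM NaCl, 0.01% Tween, 0.1% BSA, with biotinylated SRC1-2 LXXLL peptide (450 nM), Eu anti-His (2 nM) and streptavidin-APC (60 nM). Incubated 4 h to overnight; IC50 from 665/615 nm TR-FRET ratio.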

O=C(Nc1ccc2c(c1)N(S(=O)(=O)c1ccc(F)cc1)CC(CNCC1CC1)O2)c1c(F)cccc1Cl (stereo not shown) [VI-32]
pIC50 [1]: > 4.82 | pIC50 [2]: > 4.82

Cc1nn(C(F)F)cc1S(=O)(=O)N1C[C@H](C)Oc2ccc(NC(=O)c3c(F)cccc3C(F)(F)F)cc21 [VI-10]
pIC50 [1]: > 4.82 | pIC50 [2]: > 4.82

Cc1cccc(F)c1C(=O)Nc1ccc2c(c1)N(S(=O)(=O)c1cccc(C#N)c1)C[C@H](CO)O2 [VI-45]
pIC50 [1]: > 4.82 | pIC50 [2]: > 4.82

COc1ccc(S(=O)(=O)N2C[C@H](CO)Oc3ccc(NC(=O)c4c(Cl)cccc4Cl)cc32)cn1 [VI-26]
pIC50 [1]: > 4.82 | pIC50 [2]: > 4.82

O=C(Nc1cc2c(cc1F)O[C@@H](CO)CN2S(=O)(=O)c1ccc(F)cc1)c1c(F)cccc1Cl [VI-47]
pIC50 [1]: > 4.82 | pIC50 [2]: > 4.82

CC(C)OCC1CN(S(=O)(=O)c2ccc(F)cc2)c2cc(NC(=O)c3c(Cl)cccc3C(F)(F)F)ccc2O1 (stereo not shown) [VI-123]
pIC50 [1]: > 4.82 | pIC50 [2]: > 4.82

COc1ccc(S(=O)(=O)N2C[C@H](CO)Oc3cc(F)c(NC(=O)c4c(F)cccc4Cl)cc32)cn1 [VI-46]
pIC50 [1]: > 4.82 | pIC50 [2]: > 4.82

COCC1CN(S(=O)(=O)c2ccc(F)cc2)c2cc(NC(=O)c3c(Cl)cccc3C(F)(F)F)ccc2O1 (stereo not shown) [VI-104]
pIC50 [1]: > 4.82 | pIC50 [2]: > 4.82

O=C(Nc1ccc2c(c1)N(S(=O)(=O)c1ccc(Cl)cc1)C[C@H](CO)O2)c1c(F)cccc1F [VI-87]
pIC50 [1]: > 4.82 | pIC50 [2]: > 4.82

COc1ccc(S(=O)(=O)N2C[C@H](CO)Oc3ccc(NC(=O)c4c(F)cccc4Cl)cc32)cn1 [VI-28]
pIC50 [1]: > 4.82 | pIC50 [2]: > 4.82

COCC1CN(S(=O)(=O)c2ccc(F)c(F)c2)c2cc(NC(=O)c3c(F)cccc3F)ccc2O1 (stereo not shown) [VI-81]
pIC50 [1]: > 4.82 | pIC50 [2]: > 4.82

Cc1nn(C(F)F)cc1S(=O)(=O)N1C[C@H](C)Oc2ccc(NC(=O)c3c(Cl)cccc3C(F)(F)F)cc21 [VI-11]
pIC50 [1]: > 4.82 | pIC50 [2]: > 4.82

O=C(Nc1ccc2c(c1)N(S(=O)(=O)c1ccc(F)c(F)c1)C[C@@H](CO)O2)c1c(Cl)cccc1Cl [VI-73]
pIC50 [1]: > 4.82 | pIC50 [2]: > 4.82

COCC1CN(S(=O)(=O)c2ccc(F)c(F)c2)c2cc(NC(=O)c3c(Cl)cccc3Cl)ccc2O1 (stereo not shown) [VI-70]
pIC50 [1]: > 4.82 | pIC50 [2]: > 4.82

O=C(Nc1ccc2c(c1)N(S(=O)(=O)c1ccc(F)cc1)C[C@H](CO)O2)c1c(F)cccc1Cl [VI-120]
pIC50 [1]: > 4.82 | pIC50 [2]: > 4.82

Cc1nn(C(F)F)cc1S(=O)(=O)N1C[C@H](C)Oc2ccc(NC(=O)c3c(F)cccc3Cl)cc21 [VI-12]
pIC50 [1]: > 4.82 | pIC50 [2]: > 4.82

O=C(Nc1ccc2c(c1)N(S(=O)(=O)c1ccc(F)c(F)c1)C[C@@H](CO)O2)c1c(F)cccc1Cl [VI-75]
pIC50 [1]: > 4.82 | pIC50 [2]: > 4.82

N#Cc1cccc(S(=O)(=O)N2C[C@H](CO)Oc3ccc(NC(=O)c4c(Cl)cccc4Cl)cc32)c1 [VI-63]
pIC50 [1]: > 4.82 | pIC50 [2]: > 4.82

CC1(C)CN(S(=O)(=O)c2ccc(F)cc2)c2cc(NC(=O)c3c(Cl)cccc3Cl)ccc2O1 [VI-125]
pIC50 [1]: > 4.82 | pIC50 [2]: > 4.82

O=C(Nc1ccc2c(c1)N(S(=O)(=O)c1ccc(F)cc1)CC(CN(CC1CC1)CC1CC1)O2)c1c(F)cccc1Cl (stereo not shown) [VI-37]
pIC50 [1]: > 4.82 | pIC50 [2]: > 4.82
